Measurements taken from patent publication US11596639B2, “Substituted indole Mcl-1 inhibitors” (Vanderbilt University, priority 2016, dated 2023).
Like-named read-outs stand apart in the source and are kept apart here.

Columns and labels:
Mcl-1 = Mcl-1 (Homo sapiens (Human), UniProt Q07820); assay: Fluorescence polarization anisotropy (FPA) competition assay, FITC-Bak or FITC-Bim BH3 peptide; type: binding; settings: read-out: Ki for Inhibition of Mcl-1 by FPA assay
[1] = tested on: H929 human cancer cell lines; assay: Cellular viability / proliferation (Cell TiterGlo, 72 h); type: cell-based
Outline: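 1,000 cells/well, 10% FBS medium; compound added at 24 h, 2-fold dilutions from 50 μM top, DMSO <1% final. 72 h exposure, CellTiterGlo 30 min RT dark, luminescence read. IC50 by 4-parameter fit.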

[2] = Homo sapiens, NCI-H929, 72 h, read-out: GI50 on cellular proliferation of H929 human cancer cell lines, H929 cells, 72 h, Cell TiterGlo, 10% FBS
[3] = H929 cells, 72 h, Cell TiterGlo, 10% FBS, read-out: GI50 on cellular proliferation of H929 human cancer cell lines

Sequence of Mcl-1 (Q07820 172-327): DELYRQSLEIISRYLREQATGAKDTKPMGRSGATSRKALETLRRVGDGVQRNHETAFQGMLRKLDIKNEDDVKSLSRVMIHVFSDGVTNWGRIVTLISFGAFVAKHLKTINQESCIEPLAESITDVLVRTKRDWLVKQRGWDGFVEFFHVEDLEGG

Compound | Ki (Mcl-1) [nM] | GI50 [1, 2] [nM] | GI50 [1, 3] [nM]
Cc1cc(OCCCc2c3n(c4c(-c5c(C)nn(C)c5C)c(Cl)ccc24)[C@H](C)CN(c2cccc4cc(C(=O)O)n(Cc5ccccc5)c24)C3=O)cc(C)c1Cl [Example 241, 1-Benzyl-7-[(4R)-7-chloro-10-[3-(4-chloro-3,5-dimethyl-phenoxy)propyl]-4-methyl-1-oxo-6-(1,3,5-trimethylpyrazol-4-yl)-3,4-dihydropyrazino[1,2-a]indol-2-yl]indole-2-carboxylic acid] | < 1 | 420 | 
Cc1cc(OCCCc2c3n(c4c(-c5c(C)nn(C)c5C)c(Cl)ccc24)[C@H](C)CN(c2cn(C)c4cc(C(=N)NO)ccc24)C3=O)cc(C)c1Cl [Example 335, (R)-3-(7-Chloro-10-(3-(4-chloro-3,5-dimethylphenoxy)propyl)-4-methyl-1-oxo-6-(1,3,5-trimethyl-1H-pyrazol-4-yl)-3,4-dihydropyrazino[1,2-a]indol-2(1H)-yl)-N-hydroxy-1-methyl-1H-indole-6-carboximidamide] | 4.5 | 910 | 
COCCOc1cc(N2C[C@@H](C)n3c(c(CCCOc4cc(C)c(Cl)c(C)c4)c4ccc(Cl)c(-c5c(C)nn(C)c5C)c43)C2=O)c2cc(C(=O)O)n(C)c2c1 [Example 328, (M, R)-4-(7-Chloro-10-(3-(4-chloro-3,5-dimethylphenoxy)propyl)-4-methyl-1-oxo-6-(1,3,5-trimethyl-1H-pyrazol-4-yl)-3,4-dihydropyrazino[1,2-a]indol-2(1H)-yl)-6-(2-methoxyethoxy)-1-methyl-1H-indole-2-carboxylic acid] | < 1 |  | 690
Cc1cc(OCCCc2c3n(c4c(-c5c(C)nn(C)c5C)c(Cl)ccc24)[C@H](C)CN(c2coc4ccccc24)C3=O)cc(C)c1Cl (single isomer, unassigned) [Example 237] | 14 | 7600 | 
Cc1cc(OCCCc2c3n(c4c(-c5c(C)nn(CC6CCN(C)CC6)c5C)c(Cl)ccc24)[C@H](C)CN(c2cccc4c(C(=O)O)cn(C)c24)C3=O)cc(C)c1Cl [Example 137, (R)-7-(7-chloro-10-(3-(4-chloro-3,5-dimethylphenoxy)propyl)-6-(3,5-dimethyl-1-((1-methylpiperidin-4-yl)methyl)-1H-pyrazol-4-yl)-4-methyl-1-oxo-3,4-dihydropyrazino[1,2-a]indol-2(1H)-yl)-1-methyl-1H-indole-3-carboxylic acid] | 1.2 | 460 | 
CCn1nc2c(N3C[C@@H](C)n4c(c(CCCOc5cc(C)c(Cl)c(C)c5)c5ccc(Cl)c(-c6c(C)nn(C)c6C)c54)C3=O)cccc2c1C(=O)O [Example 117, (R)-7-(7-chloro-10-(3-(4-chloro-3,5-dimethylphenoxy)propyl)-4-methyl-1-oxo-6-(1,3,5-trimethyl-1H-pyrazol-4-yl)-3,4-dihydropyrazino[1,2-a]indol-2(1H)-yl)-2-ethyl-2H-indazole-3-carboxylic acid] | < 1 | 390 | 
Cc1cc(OCCCc2c3n(c4c(-c5c(C)nn(C)c5C)c(Cl)ccc24)[C@H](C)CN(c2cc(OCc4ccccc4)cc4cc(C(=O)O)n(C)c24)C3=O)cc(C)c1Cl [Example 333, (M, R)-5-(Benzyloxy)-7-(7-chlor-10-(3-(4-chloro-3,5-dimethylphenoxy)propyl)-4 methyl-1-oxo-6-(1,3,5-trimethyl-1H-pyrazol-4-yl)-3,4-dihydropyrazino[1,2-a]indol-2(1H)-yl)-1-methyl-1H-indole-2-carboxylic acid] | 1.3 |  | 1100
COCCn1cc(C(=O)O)c2c(N3C[C@@H](C)n4c(c(CCCOc5cc(C)c(Cl)c(C)c5)c5ccc(Cl)c(-c6c(C)nn(C)c6C)c54)C3=O)cccc21 [Example 181, 4-[(4R)-7-chloro-10-[3-(4-chloro-3,5-dimethyl-phenoxy)propyl]-4-methyl-1-oxo-6-(1,3,5-trimethylpyrazol-4-yl)-3,4-dihydropyrazino[1,2-a]indol-2-yl]-1-(2-methoxyethyl)indole-3-carboxylic acid] | 1.4 | 2000 | 
Cc1cc(OCCCc2c3n(c4c(-c5c(C)nn(C)c5C)c(Cl)ccc24)[C@H](C)CN(c2cccc4c2cc(C(=O)O)n4C)C3=O)cc(C)c1Cl [Example 113, (R)-4-(7-Chloro-10-(3-(4-chloro-3,5-dimethylphenoxy)propyl)-4-methyl-1-oxo-6-(1,3,5-trimethyl-1H-pyrazol-4-yl)-3,4-dihydropyrazino[1,2-a]indol-2(1H)-yl)-1-methyl-1H-indole-2-carboxylic acid] | < 1 | 330 | 
Cc1cc(OCCCc2c3n(c4c(-c5c(C)nn(C)c5C)c(Cl)ccc24)[C@H](C)CN(c2cn(Cc4ccccn4)c4cc(C(=O)O)ccc24)C3=O)cc(C)c1Cl [Example 338, (R)-3-(7-Chloro-10-(3-(4-chloro-3,5-dimethylphenoxy)propyl)-4-methyl-1-oxo-6-(1,3,5-trimethyl-1H-pyrazol-4-yl)-3,4-dihydropyrazino[1,2-a]indol-2(1H)-yl)-1-(pyridin-2-ylmethyl)-1H-indole-6-carboxylic acid] | < 1 | 2000 | 
Cc1cc(OCCCc2c3n(c4c(-c5c(C)nn(C)c5C)c(Cl)ccc24)[C@H](C)CN(c2cccc4c2C(=O)CC4)C3=O)cc(C)c1Cl [Example 195, (R)-7-Chloro-10-(3-(4-chloro-3,5-dimethylphenoxy)propyl)-4-methyl-2-(3-oxo-2,3-dihydro-1H-inden-4-yl)-6-(1,3,5-trimethyl-1H-pyrazol-4-yl)-3,4-dihydropyrazino[1,2-a]indol-1(2H)-one] | 3.6 | 1800 | 
COc1cnc(-c2ccc3c(c2)c(N2C[C@@H](C)n4c(c(CCCOc5cc(C)c(Cl)c(C)c5)c5ccc(Cl)c(-c6c(C)nn(C)c6C)c54)C2=O)cn3C)nc1 [Example 465, (R)-7-Chloro-10-(3-(4-chloro-3,5-dimethylphenoxy)propyl)-2-(5-(5-methoxypyrimidin-2-yl)-1-methyl-1H-indol-3-yl)-4-methyl-6-(1,3,5-trimethyl-1H-pyrazol-4-yl)-3,4-dihydropyrazino[1,2-a]indol-1(2H)-one] | 1.5 | 690 | 
Cc1cc(OCCCc2c3n(c4c(-c5c(C)ncnc5C)c(Cl)ccc24)CCCN(c2ccc(C(=O)O)c4ncccc24)C3=O)cc(C)c1Cl [Example 147, 5-[8-Chloro-11-[3-(4-chloro-3,5-dimethyl-phenoxy)propyl]-7-(4,6-dimethylpyrimidin-5-yl)-1-oxo-4,5-dihydro-3H-[1,4]diazepino[1,2-a]indol-2-yl]quinoline-8-carboxylic acid] | 1.8 | 4300 | 
Cc1cc(OCCCc2c3n(c4c(-c5c(C)ncnc5C)c(C)ccc24)[C@H](C)CN(c2cccc4cc(C(=O)O)n(Cc5ccccn5)c24)C3=O)cc(C)c1Cl (atropisomer, axis not shown) [Example 271, (R)-7-(10-(3-(4-chloro-3,5-dimethylphenoxy)propyl)-6-(4,6-dimethylpyrimidin-5-yl)-4,7-dimethyl-1-oxo-3,4-dihydropyrazino[1,2-a]indol-2(1H)-yl)-1-(pyridin-2-ylmethyl)-1H-indole-2-carboxylic acid] | < 1 | 260 | 
